# Publication PMC3946636 (Cancer chemotherapy and pharmacology, 2013)
# Experiments:
# [1] = Plasma pharmacokinetics, LC-MS/MS, non-compartmental analysis; assay type: in vivo, human; conditions: for AUC(0-inf) / clearance / Cmax / half-life / Tmax / Vd: human, plasma, intravenous; for AUC(0-inf): Mean AUC0-∞ ± SD; for clearance: Mean CL ± SD; for Cmax: Mean Cmax ± SD; for half-life: Mean T1/2 ± SD; for Vd: Mean Vz ± SD
# relapsed myeloma = assay: Clinical response by International Myeloma Working Group criteria; assay type: in vivo, human; conditions: 15 patients, all dose levels
# [2] = in vivo
# [3] = in human serum; cited from earlier work
# [4] = dose level 30 + 30 mg/m^2, cycle 1 days 1 and 22 combined
# [5] = dose level 30+50 mg/m^2, cycle 1 days 1 and 22 combined
# [6] = dose level 50+50 mg/m^2, cycle 1 days 1 and 22 combined
smiles,measurement,setting,value
CN1CC[C@H](c2c(O)cc(O)c3c(=O)cc(-c4ccccc4Cl)oc23)[C@H](O)C1 [Flavopiridol],AUC(0-inf),[1]; [4],7.78 ± 2.75 µM·h
same,AUC(0-inf),[1]; [5],4.75 ± 1.06 µM·h
same,AUC(0-inf),[1]; [6],14.2 ± 5.34 µM·h
same,clearance,[1]; [4],666 mL/min
same,clearance,[1]; [5],1280 mL/min
same,clearance,[1]; [6],643 mL/min
same,Cmax,[1]; [4],1850 ± 800 nM
same,Cmax,[1]; [5],1090 ± 430 nM
same,Cmax,[1]; [6],2410 ± 740 nM
same,half-life,[1]; [4],6.87 ± 3.24 h
same,half-life,[1]; [5],3.65 ± 1.75 h
same,half-life,[1]; [6],5.35 ± 2.83 h
same,Tmax,"[1]; Mean Tmax ± SD, dose level 30 + 30 mg/m^2, cycle 1 days 1 and 22 combined",0.52 ± 0.03 h
same,Tmax,"[1]; Mean Tmax ± SD, dose level 30+50 mg/m^2, cycle 1 days 1 and 22 combined",1.18 ± 1.22 h
same,Tmax,"[1]; Mean Tmax ± SD, dose level 50+50 mg/m^2, cycle 1 days 1 and 22 combined",1.4 ± 1.67 h
same,Vd,[1]; [4],368 ± 210 L
same,Vd,[1]; [5],417 ± 242 L
same,Vd,[1]; [6],317 ± 255 L
same,Tmax,"[1]; Tmax, outlier, 30/50 mg/m^2 dose level group, single profile",3 h
same,"Average difference in AUC(0-∞), day 22 versus day 1","[1]; patients with PK data on both days (n=6), 95% CI −2.78 to 4.78, P=0.53",1.00 µM·h
same,Confirmed partial responses,relapsed myeloma,no confirmed partial responses
same,Patients with progressive disease after the first cycle,relapsed myeloma,4 patients
same,"Dehydration, patients with toxicity",[2]; human,2 n
same,"Diaphoresis, patients with toxicity",[2]; human,1 n
same,"Dizziness, patients with toxicity",[2]; human,1 n
same,"Hyperglycemia, patients with toxicity",[2]; human,4 n
same,"Hyperkalemia, patients with toxicity",[2]; human,2 n
same,"Hypocalcemia, patients with toxicity",[2]; human,3 n
same,"Lymphopenia, patients with toxicity",[2]; human,5 n
same,"Nausea, patients with toxicity",[2]; human,3 n
same,"Vomiting, patients with toxicity",[2]; human,1 n
same,"Serious adverse events, number",[2],eight
same,Protein binding,[3],highly protein bound
